Usually inhibition stands for the percentage by which the read-out fell short of the control.

This is an account of results in patent publication US7714146B2, “Azulene-oxindole compounds as multiple-kinase inhibitors and useful as anticancer agents” (Industrial Technology Research Institute, priority 2006, dated 2010).

Holding throughout (type): biochemical
Experiment [1] deals with T1, human c-KIT (Thr544-Val976) (Homo sapiens, UniProt P10721).
T1 construct: human c-KIT (Thr544-Val976); GST (N); purchased Cell Signaling Technology; host or cells: baculovirus expression system
T1 sequence (P10721 544-976): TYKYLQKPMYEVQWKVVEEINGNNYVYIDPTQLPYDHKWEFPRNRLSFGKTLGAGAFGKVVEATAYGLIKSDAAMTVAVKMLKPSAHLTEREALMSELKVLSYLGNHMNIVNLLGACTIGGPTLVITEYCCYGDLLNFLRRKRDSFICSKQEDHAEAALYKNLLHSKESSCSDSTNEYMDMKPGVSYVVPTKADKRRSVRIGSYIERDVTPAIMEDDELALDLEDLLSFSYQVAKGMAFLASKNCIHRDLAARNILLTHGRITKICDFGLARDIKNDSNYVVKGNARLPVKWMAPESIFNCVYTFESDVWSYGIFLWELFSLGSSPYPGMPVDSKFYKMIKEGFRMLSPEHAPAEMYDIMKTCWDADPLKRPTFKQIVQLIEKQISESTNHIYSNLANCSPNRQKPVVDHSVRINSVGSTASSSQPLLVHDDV
Kind of experiment: c-KIT kinase assay (HTScan kit, DELFIA). As to conditions: for inhibition at 0.1 µM: compound at 0.1 μM, read-out: c-KIT 0.1 μM, % of inhibition relative to control; for inhibition at 1 µM: compound at 1 μM, read-out: c-KIT 1 μM, % of inhibition relative to control. On the procedure:
(§1) Compounds 1-100 were treated for their efficacy in inhibiting activities of FLT-3, c-KIT, KDR/Flk-1, PDGFR-beta, EGFR, and PKC kinases by biochemical DELFIA (Dissociation Enhanced Lanthanide FIA) assays according to the procedure described below. The assays were conducted by, Division of Cell Engineering, Biomedical Engineering Research Laboratories, Industrial Technology Research Institute, Bldg. 53, 195, sec. 4, Chung Hsing Rd. Chutung, Hsinchu, Taiwan 310, R.O.C.
(§2) The c-KIT assay was conducted following the protocol described in Protocol for HTScan® c-KIT Kinase Assay Kit (Cell Signaling Technology®). The assay was conducted under the following conditions: c-KIT source: The GST-c-KIT fusion protein was produced using a baculovirus expression system with a construct expressing human c-KIT (Thr544-Val976) with an amino-terminal GST tag, substrate: 1.5 μM This biotinylated peptide contains the residues surrounding Tyr-996 of KDR, vehicle: 1% DMSO, pre-incubation time/temperature: 5 minutes at room temperature, incubation time/temperature: 30 minutes at room temperature, incubation buffer: 60 mM HEPES pH 7.5, 5 mM MgCl2, 5 mM MnCl2, 3 μM Na3VO4, 1.25 mM DTT, 20 μM ATP, and quantitative method: DELFIA® Assay.

Experiment [2] addresses T2, human FLT-3 (Arg571-Ser993) (Homo sapiens, UniProt P36888).
T2 construct: human FLT-3 (Arg571-Ser993); GST (N); purchased Cell Signaling Technology; host or cells: baculovirus expression system
T2 sequence (P36888 571-993): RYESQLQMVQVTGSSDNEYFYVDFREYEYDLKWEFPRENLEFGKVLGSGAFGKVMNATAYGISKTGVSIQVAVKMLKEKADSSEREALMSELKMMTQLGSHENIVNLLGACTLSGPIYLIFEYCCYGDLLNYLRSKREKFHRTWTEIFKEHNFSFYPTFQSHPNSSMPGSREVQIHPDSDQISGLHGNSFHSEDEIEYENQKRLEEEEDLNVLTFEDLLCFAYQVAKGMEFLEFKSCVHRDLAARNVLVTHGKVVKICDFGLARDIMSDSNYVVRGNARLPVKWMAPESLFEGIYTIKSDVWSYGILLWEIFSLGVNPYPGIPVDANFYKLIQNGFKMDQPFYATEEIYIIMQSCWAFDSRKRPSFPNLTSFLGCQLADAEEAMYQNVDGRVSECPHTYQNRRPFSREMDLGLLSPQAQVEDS
Nature of the experiment: FLT-3 kinase assay (HTScan kit, DELFIA). As to conditions: for inhibition at 0.1 µM: compound at 0.1 μM, read-out: FLT-3 0.1 μM, % of inhibition relative to control; for inhibition at 1 µM: compound at 1 μM, read-out: FLT-3 1 μM, % of inhibition relative to control. On the procedure: as §1
as §2, with “FLT-3” for “c-KIT”, “GST-kinase” for “GST-c-KIT”, “FLT-3 (Arg571-Ser993) (GenBank accession No. NM_004119)” for “c-KIT (Thr544-Val976)”, “Gastrin Precursor Biotinylated Peptide (with Tyr87 as phosphorylation site),” for “This biotinylated peptide contains the residues surrounding Tyr-996 of KDR,”

Experiment [3] deals with T3, human VEGFR-2 (Val789-Val1356) (Homo sapiens, UniProt P35968).
T3 construct: human VEGFR-2 (Val789-Val1356); GST (N); purchased Cell Signaling Technology; host or cells: baculovirus expression system
T3 sequence (P35968 789-1356): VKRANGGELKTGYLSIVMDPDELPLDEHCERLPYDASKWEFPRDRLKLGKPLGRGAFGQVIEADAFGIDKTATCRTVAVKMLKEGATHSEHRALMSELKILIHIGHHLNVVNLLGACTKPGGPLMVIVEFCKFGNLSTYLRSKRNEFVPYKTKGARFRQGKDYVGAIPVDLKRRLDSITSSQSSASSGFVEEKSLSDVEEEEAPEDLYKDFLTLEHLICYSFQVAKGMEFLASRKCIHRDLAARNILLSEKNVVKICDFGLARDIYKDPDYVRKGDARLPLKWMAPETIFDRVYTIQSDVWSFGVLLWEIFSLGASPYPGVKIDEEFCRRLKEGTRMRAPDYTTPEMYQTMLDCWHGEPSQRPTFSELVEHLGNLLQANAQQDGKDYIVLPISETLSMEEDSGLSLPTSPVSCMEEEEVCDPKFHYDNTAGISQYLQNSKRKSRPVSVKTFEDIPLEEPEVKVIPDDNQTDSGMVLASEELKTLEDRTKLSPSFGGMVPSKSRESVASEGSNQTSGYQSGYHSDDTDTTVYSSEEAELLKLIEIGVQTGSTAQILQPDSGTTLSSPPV
Kind of experiment: KDR kinase assay (HTScan VEGFR-2 kit, DELFIA). As to conditions: for inhibition at 0.1 µM: compound at 0.1 μM, read-out: KDR 0.1 μM, % of inhibition relative to control; for inhibition at 1 µM: compound at 1 μM, read-out: KDR 1 μM, % of inhibition relative to control. On the procedure:
as §1
as §2, with “The KDR” for “The c-KIT”, “HTScan® VEGFR-2” for “HTScan® c-KIT”, “conditions: KDR” for “conditions: c-KIT”, “The GST-Kinase” for “The GST-c-KIT”, “human VEGFR-2 (Val789-Val1356) (GenBank Accession No. NM_002253)” for “human c-KIT (Thr544-Val976)”, “μM Gastrin Precursor Biotinylated Peptide (with Tyr87 as phosphorylation site),” for “μM This biotinylated peptide contains the residues surrounding Tyr-996 of KDR,”

The structures appear in SMILES notation.

Regarding `CN(C)Cc1c(/C=C2/C(=O)Nc3ccc(F)cc32)cc2cccccc1-2` [Compound 59, 3-(1-Dimethylaminomethyl-azulen-2-ylmethylene)-5-fluoro-1,3-dihydro-indol-2-one], the inhibition at 0.1 µM is 24.2% in experiment [1], 43% in experiment [2] and 19.9% in experiment [3]. For the same compound, the inhibition at 1 µM was found to be 24.2% in experiment [1], 49.8% in experiment [2] and 28.5% in experiment [3].
As to `O=C1Nc2ccc(F)cc2/C1=C\c1ccc2cccc-2cc1` [Compound 53, 3-Azulen-6-ylmethylene-5-fluoro-1,3-dihydro-indol-2-one], the values for the inhibition at 0.1 µM in experiment [1], in experiment [2] and in experiment [3] were 39.8%, 30.6% and 16.3%, respectively. Moreover, the inhibition at 1 µM in experiment [1] is 39.8%; in experiment [2], 52.7%; in experiment [3], 20.1%.
On to `Cc1cc(/C=C2/C(=O)N(C(c3ccccc3)c3ccccc3)c3ccccc32)c2c(C)ccc(C(C)C)cc1-2` [Compound 14, 1-Benzhydryl-3-(5-isopropyl-3,8-dimethyl-azulen-1-ylmethylene)-1,3-dihydro-indol-2-one], for which the inhibition at 0.1 µM in experiment [1] stood at 31.5%; in experiment [3] it was 17.1%. Moreover, the figures for the inhibition at 1 µM in experiment [1], in experiment [2] and in experiment [3] were 31.5%, 6% and 69.2%, respectively.
As for `Nc1cc2cccccc-2c1C=C1C(=O)Nc2ccc(F)cc21` [Compound 64, 3-(2-Amino-azulen-1-ylmethylene)-5-fluoro-1,3-dihydro-indol-2-one], the inhibition at 0.1 µM in experiment [1] was 34.2%; in experiment [2] it was 68.3%; in experiment [3], 46.5%. Moreover, the inhibition at 1 µM in experiment [1] was found to be 34.2%; in experiment [2], 74.9%; in experiment [3] it was 47.8%.
On to `O=C1Nc2cc(Br)ccc2/C1=C/c1ccc2cccccc1-2` [Compound 29, 3-Azulen-1-ylmethylene-6-bromo-1,3-dihydro-indol-2-one], for which the inhibition at 0.1 µM came to 46.1% in experiment [1] and 18.5% in experiment [3]. For the same compound, the inhibition at 1 µM in experiment [1] came out at 46.1%; in experiment [2] it was 53.3%; in experiment [3] it was 48.2%.
For `CNS(=O)(=O)c1ccc2c(c1)/C(=C\c1cc(C)c3c(OCCCN(C)C)ccccc1-3)C(=O)N2` [Compound 88, 3-[4-(3-Dimethylamino-propoxy)-3-methyl-azulen-1-ylmethylene]-2-oxo-2,3-dihydro-1H-indole-5-sulfonic acid methylamide], the inhibition at 0.1 µM in experiment [1] stood at 19.3%; in experiment [2], 24.2%. Further, the figures for the inhibition at 1 µM in experiment [1], in experiment [2] and in experiment [3] were 19.3%, 47.3% and 16.8%, respectively.
As for `CCOC(=O)N1CCC(Nc2ccc3c(c2)NC(=O)/C3=C/c2cc(C)c3c(OCCCN(C)C)ccccc2-3)CC1` [Compound 97, 4-{3-[4-(3-Dimethylamino-propoxy)-3-methyl-azulen-1-ylmethylene]-2-oxo-2,3-dihydro-1H-indol-6-ylamino}-piperidine-1-carboxylic acid ethyl ester], the values for the inhibition at 0.1 µM in experiment [1], in experiment [2] and in experiment [3] were 30.6%, 19.1% and 30.5%, respectively. In addition, the inhibition at 1 µM in experiment [1] came out at 30.6%; in experiment [2] it was 23.9%; in experiment [3], 41.8%.
For the compound `Cc1cc(C=C2C(=O)Nc3ncccc32)c2ccccc(OCCCN(C)C)c1-2` [Compound 104, 3-(((3aZ,5Z,7E)-8-(3-(dimethylamino)propoxy)-1-methylazulen-3-yl)methylene)-1H-pyrrolo[2,3-b]pyridin-2(3H)-one], the inhibition at 0.1 µM in experiment [1] amounted to 42.5%; in experiment [2], 14.6%; in experiment [3], 30.1%. In addition, the inhibition at 1 µM turned out to be 57.4% in experiment [1], 44.8% in experiment [2] and 88% in experiment [3].
For the compound `Cc1cc(C=C2C(=O)Nc3ccc(C(F)(F)F)cc32)c2ccccc(OCCCN(C)C)c1-2` [Compound 100, 3-[4-(3-Dimethylamino-propoxy)-3-methyl-azulen-1-ylmethylene]-5-trifluoromethyl-1,3-dihydro-indol-2-one], the values for the inhibition at 0.1 µM in experiment [1], in experiment [2] and in experiment [3] were 48.1%, 64.9% and 33.3%, respectively. Also, the figures for the inhibition at 1 µM in experiment [1], in experiment [2] and in experiment [3] were 48.1%, 89.1% and 73.2%, respectively.
Take `O=C1Nc2ccc(F)cc2/C1=C\c1ccccc2cccc1-2` [Compound 52, 3-Azulen-4-ylmethylene-5-fluoro-1,3-dihydro-indol-2-one]: the results for the inhibition at 0.1 µM in experiment [1], in experiment [2] and in experiment [3] were 20.2%, 14.1% and 12.6%, respectively. In addition, the inhibition at 1 µM in experiment [1] was found to be 20.2%; in experiment [2] it was 44.2%; in experiment [3] it was 9.1%.
In the case of `COc1ccc2c(c1)NC(=O)/C2=C/c1ccc2cccccc1-2` [Compound 30, 3-Azulen-1-ylmethylene-6-methoxy-1,3-dihydro-indol-2-one], the inhibition at 0.1 µM is 26.9% in experiment [1], 7.3% in experiment [2] and 9.5% in experiment [3]. The inhibition at 1 µM in experiment [1] was found to be 26.9%; in experiment [2], 34.6%; in experiment [3] it was 15.6%.
Turning to `Cc1ccc2c(c1)/C(=C\c1c3cccccc-3nc1N)C(=O)N2` [Compound 54, 3-(2-Amino-cyclohepta[b]pyrrol-3-ylmethylene)-5-methyl-1,3-dihydro-indol-2-one], the inhibition at 0.1 µM came to 27.5% in experiment [1], 33.3% in experiment [2] and 17% in experiment [3]. Also, the inhibition at 1 µM in experiment [1] came to 27.5%; in experiment [2], 52.5%; in experiment [3], 25.7%.
Turning to `Cc1cc(C=C2C(=O)Nc3ccc(S(=O)(=O)NCCCN4CCN(C)CC4)cc32)c2cccccc1-2` [Compound 82, 3-(3-Methyl-azulen-1-ylmethylene)-2-oxo-2,3-dihydro-1H-indole-5-sulfonic acid [3-(4-methyl-piperazin-1-yl)-propyl]-amide], the inhibition at 0.1 µM stood at 30.7% in experiment [1], 12.8% in experiment [2] and 17.6% in experiment [3]. Besides, the inhibition at 1 µM was 30.7% in experiment [1], 13.5% in experiment [2] and 18.5% in experiment [3].
